Source: US9623014B2 (Entasis Therapeutics Limited, priority 2012, dated 2017)

Key:
S. aureus (MSSA) = assay: MIC, broth microdilution (CLSI); type: cell-based, Staphylococcus aureus; conditions: compound alone
Method: (§1) Minimum Inhibitory Concentrations (MICs) were determined by the broth microdilution method in accordance with the Clinical and Laboratory Standards Institute (CLSI) guidelines. Clinical Laboratory Standards Institute: Methods for Dilution Antimicrobial Susceptability Tests for Bacteria That Grow Aerobically (8th Ed. (2009)) M07-A8. In brief, organism suspensions were adjusted to a 0.5 McFarland standard and further diluted to yield a final inoculum between 3×10^5 and 7×10^5 colony-forming units (CFU)/mL. Bacterial inocula were made in sterile, cation adjusted Mueller-Hinton Broth (Beckton Dickinson) for either Escherichia coli, Klebsiella pneumoniae, or Pseudomonas aeruginosa. Haemophilus influenzae bacterial inocula were made in sterile, cation adjusted Mueller-Hinton Broth (Beckton Dickinson) containing 0.5% yeast extract (Beckton Dickinson) plus 15 μg/ml Bovine Hematin (Sigma) and 15 μg/ml β-nicotinamide adenine dinucleotide (Sigma). Bacterial inocula were made in sterile, cation adjusted Mueller-Hinton Broth (Beckton Dickinson) for Staphylococcus aureus or sterile, cation adjusted Mueller-Hinton Broth containing 2.5% lysed horse blood (Hema Resource & Supply Inc.) for Streptococcus pneumoniae and Streptococcus pyogenes. An inoculum volume of 100 uL was added to wells (using a Tecan EVO robot) containing 2 uL of DMSO containing 2-fold serial dilutions of drug. […] All inoculated microdilution trays were incubated in ambient air at 35° C. for 18-24 hours. Following incubation, the lowest concentration of the drug that prevented visible growth as read at OD600 nm was recorded as the MIC. Performance of the assay was monitored by the use of laboratory quality-control strains and commercially available control compounds with defined MIC spectrums, in accordance with CLSI guidelines.

S. aureus (MRSA) = assay: MIC, broth microdilution (CLSI); type: cell-based, Staphylococcus aureus; conditions: compound alone
Method: as §1

Pseudomonas aeruginosa = assay: MIC, broth microdilution (CLSI); type: cell-based; conditions: compound alone
Method: as §1

Escherichia coli = assay: MIC, broth microdilution (CLSI); type: cell-based; conditions: compound alone
Method: as §1

Streptococcus pneumoniae = assay: MIC, broth microdilution (CLSI); type: cell-based; conditions: compound alone
Method: as §1

Streptococcus pyogenes = assay: MIC, broth microdilution (CLSI); type: cell-based; conditions: compound alone
Method: as §1

Haemophilus influenzae = assay: MIC, broth microdilution (CLSI); type: cell-based; conditions: compound alone
Method: as §1

Klebsiella pneumoniae = assay: MIC, broth microdilution (CLSI); type: cell-based; conditions: compound alone
Method: as §1

[1] = tested on: Klebsiella pneumoniae KPC2; assay: MIC alone against β-lactamase producing strain; type: cell-based; conditions: substance alone
Method: as §1

[2] = tested on: Pseudomonas aeruginosa PER-1, OXA-10; assay: MIC alone against β-lactamase producing strain; type: cell-based; conditions: substance alone
Method: as §1

[3] = tested on: Klebsiella pneumoniae KPC2; assay: Synergy with β-lactams (MIC of β-lactam at fixed inhibitor concentration); type: cell-based; conditions: MIC of ceftazidime + inhibitor at fixed 4 ug/ml
Method: (§2) Synergy with β-lactams was assessed against several organisms producing a variety of β-lactamases belonging to different classes. Bush & Jacoby, Updated Functional Classification of β-Lactamases, Antimicrobial Agents and Chemotherapy, 54:969-76 (2010). In the assays, growth inhibitory activity (MIC) was measured using either two-fold dilutions of the partner β-lactam at a fixed concentration of compounds of formula (I). Compounds were prepared in DMSO, and MIC determinations using the compound of formula (I)/β-lactam combinations were done according to the CLSI guidelines. Clinical Laboratory Standards Institute: Methods for Dilution Antimicrobial Susceptability Tests for Bacteria That Grow Aerobically (8th Ed. (2009)) M07-A8. Synergy was defined as a four-fold or more reduction in the MIC of the β-lactam in the presence of the compound of formula (I), compared to the β-lactam alone.

[4] = tested on: Pseudomonas aeruginosa PER-1, OXA-10; assay: as above; type: cell-based; conditions: MIC of ceftazidime + inhibitor at fixed 4 ug/ml
Method: as §2

`CC(C)C1=C[C@@H]2CN(C(=O)N2OS(=O)(=O)[O-])[C@@H]1C(N)=O.[Na+]` [Example 11] was tested, and the “MIC S. aureus (MSSA)” value (S. aureus (MSSA)) was 100 µg/mL, the “MIC S. aureus (MRSA)” value (S. aureus (MRSA)) was greater than 200 µg/mL and the “MIC P. aeruginosa” value (Pseudomonas aeruginosa) was greater than 200 µg/mL. The “MIC E. coli” value (Escherichia coli) was greater than 200 µg/mL, the “MIC S. pneumon.” value (Streptococcus pneumoniae) was 25 µg/mL and the “MIC S. pyogenes” value (Streptococcus pyogenes) was 25 µg/mL. The “MIC H. influenzae” value (Haemophilus influenzae) was greater than 200 µg/mL, the “MIC K. pneumon.” value (Klebsiella pneumoniae) was greater than 200 µg/mL and the “MIC Klebsiella pneumoniae KPC2” value [1] was greater than 16 µg/mL. For the same compound, the “MIC Pseudomonas aeruginosa PER-1, OXA-10” value [2] was greater than 16 µg/mL, the “MIC Klebsiella pneumoniae KPC2” value [3] was 1 µM and the “MIC Pseudomonas aeruginosa PER-1, OXA-10” value [4] was 16 µM.
